ChEMBL document CHEMBL3414446, “Neoechinulin B and its analogues as potential entry inhibitors of influenza viruses, targeting viral hemagglutinin” (Eur J Med Chem, 2015)

What was measured:
Influenza A virus [1] = test: Antiviral activity against OSV-resistant influenza A virus A/LiaoNing-ZhenXing/1109/2010 (H1N1) strain; assay type: functional, organism-based
Influenza A virus [2] = test: Antiviral activity against amantadine and ribavirin-resistant influenza A virus A/HuNan-huHui/1222/2010 (H3N2) strain; assay type: functional, organism-based

In the case of `NC12CC3CC(CC(C3)C1)C2` [AMANTADINE], the IC50 (Influenza A virus [1]) is reported as 0.82 µM and the IC50 (Influenza A virus [2]) is reported as > 200 µM.
`C=CC(C)(C)c1[nH]c2ccccc2c1/C=c1\[nH]c(=O)c(=C)[nH]c1=O` [NEOECHINULIN B] showed an IC50 (Influenza A virus [1]) of 16.9 µM and an IC50 (Influenza A virus [2]) of 22.2 µM.
For `CCOC(=O)C1=C[C@@H](OC(CC)CC)[C@H](NC(C)=O)[C@@H](N)C1` [OSELTAMIVIR], the IC50 (Influenza A virus [1]) was > 200 µM and the IC50 (Influenza A virus [2]) was > 20.5 µM.
With `NC(=O)c1ncn([C@@H]2O[C@H](CO)[C@@H](O)[C@H]2O)n1` [RIBAVIRIN] the IC50 (Influenza A virus [1]) was 1.05 µM and the IC50 (Influenza A virus [2]) was > 150 µM.
